The numbers were not newly measured in patent publication US20200171007A1, “Methods of Treating Hepatorenal Syndrome and Hepatic Encephalopathy with Thromboxane-A2 Receptor Antagonists” (Cumberland Pharmaceuticals Inc., priority 2010, published 2020), which cites them from elsewhere.

Structures are written as SMILES. Where a SMILES comes first, the peptide text is derived from it. Bridges are numbered along the chain shown (N, C = ends). [ ]: non-standard residue; d: D form.

The subject of series [1] is patients with cirrhosis, ascites, and hepatorenal syndrome. The settings on record: case series.
The subject of series [2] is patients with hepatorenal syndrome. The following applies: intravenous, twelve patients.
In the next series the test system is patients with cirrhosis. The settings on record: patients with cirrhosis / hepatorenal syndrome.
Series [3] relates to patients with type 1 hepatorenal syndrome. The settings on record: nonpressor doses, with albumin.
In series [4] the test system is patients with hepatorenal syndrome. The following applies: five studies.
The test system is the same in series [5]. The following applies: ornipressin and albumin.
Series [6] deals with patients with type 1 hepatorenal syndrome. The settings on record: type 1 hepatorenal syndrome (octapressin); short-term use (ornipressin).
In series [7] the test system is patients with hepatorenal syndrome.
The subject of series [8] is patients with type 1 hepatorenal syndrome.
The mark [9] stands for this setting: includes 2 patients who received liver transplantation.

`CC(C)C[C@@H]1NC(=O)[C@@H](C(C)C)NC(=O)[C@@H]2CCCN2C(=O)[C@@H](CC(=O)O)NC(=O)[C@@H](Cc2c[nH]c3ccccc23)NC1=O` [BQ123] (cyclo(L[dW][dD]P[dV])): in series [1], the “patients with improvement in the glomerular filtration rate” value is reported as 3 patients.

Take `CC(=O)N[C@@H](CS)C(=O)O` [NAC, N-acetylcysteine]: the adverse effects entry in series [2] is on record as “without any adverse effects”. In addition, in [2] (setting [9]), the “survival rate at 1 month” value was 67% and the “survival rate at 3 months” value was 58%.

As for `CNCC(=O)N[C@@H](CCCN=C(N)N)C(=O)N[C@H](C(=O)N[C@@H](Cc1ccc(O)cc1)C(=O)N[C@H](C(=O)N[C@@H](Cc1cnc[nH]1)C(=O)N1CCC[C@H]1C(=O)N[C@@H](C)C(=O)O)C(C)C)C(C)C` [Saralasin], the “effect on blood pressure and renal function” value in the series on patients with cirrhosis was “worsening hypotension and deterioration in renal function”.

For the compound `NCCc1ccc(O)c(O)c1` [dopamine], the “improvement in renal function” value in [3] was “none of the patients treated with dopamine showed any improvement in renal function”. Moreover, the “changes in renal plasma flow, glomerular filtration rate, or urine output” value in [4] is reported as “none have reported significant changes”.

With `NCCC[C@H](NC(=O)[C@@H]1CCCN1C(=O)[C@@H]1CSSC[C@H](N)C(=O)N[C@@H](Cc2ccc(O)cc2)C(=O)N[C@@H](Cc2ccccc2)C(=O)N[C@@H](CCC(N)=O)C(=O)N[C@@H](CC(N)=O)C(=O)N1)C(=O)NCC(N)=O` [ornipressin], the “patients in whom treatment had to be discontinued because of complications (ischemic colitis, tongue ischemia, glossitis)” value in series [5] (8 patients, after fewer than 9 days) was 4 patients. Further, the “improvement in renal plasma flow and glomerular filtration rate” value in series [5] (remaining 4 patients treated for 15 days) was “significant”. Also, the “Renal plasma flow and glomerular filtration rate” value in series [6] is reported as “significant increase”.

For the compound `Cc1ccc(N(CC2=NCCN2)c2cccc(O)c2)cc1` [phentolamine], the “effect on blood pressure and renal function” value in the series on patients with cirrhosis is “Poor results”.

`NCCCC[C@H](NC(=O)[C@@H]1CCCN1C(=O)[C@@H]1CSSC[C@H](NC(=O)CNC(=O)CNC(=O)CN)C(=O)N[C@@H](Cc2ccc(O)cc2)C(=O)N[C@@H](Cc2ccccc2)C(=O)N[C@@H](CCC(N)=O)C(=O)N[C@@H](CC(N)=O)C(=O)N1)C(=O)NCC(N)=O` [terlipressin] (H-GGGCYFQNCPKG-NH2; disulfide 4-9): the adverse ischemic effects entry in series [7] (human, in vivo) is on record as “No adverse ischemic effects were reported”. The “Reversal of hepatorenal syndrome” value in series [7] (terlipressin and albumin for 5-15 days, 9 patients treated) is listed as 7 of 9. The “recurrent hepatorenal syndrome after treatment discontinuation” value in [8] (in conjunction with albumin) is recorded as less than 15%. In addition, the “improvement in glomerular filtration rate and reduction in serum creatinine levels to below 1.5 mg/dL, share of patients” value in series [8] (in conjunction with albumin, type 1 hepatorenal syndrome) is listed as 60-75%. Moreover, the Ischemic complications in series [8] (in vivo) is on record as less than 5%.
